Experiments:
Experiment in all cases: relative viability (nuclei count vs DMSO), 5 days (fraction); higher = more cells survive
[1] = compound: Nc1nc(Nc2ccc3c(c2)CC[C@@H](N2CCCC2)CC3)nn1-c1cc2c(nn1)-c1ccccc1CCC2 [Bemcentinib] + C[C@]1(O)C[C@@H](c2nc(-c3ccc4ccc(-c5ccccc5)nc4c3)c3c(N)nccn32)C1 [Linsitinib] (partner 1 µM)
Outline: (§1)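 Each reported value is a median over duplicate plates. It expresses relative viability: treated-well nuclei count divided by vehicle-well nuclei count. Lung cancer cell lines in 1536-well plates were dosed by pin tool a day after seeding, alone with one drug or with a fixed anchor-drug dose plus five library-drug doses (not always all listed) in √10 steps, and nuclei were counted after 5 days.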

[2] = compound: CC1=CC=C(C=C1)C(=O)CN2C3=C(CCCC3)SC2=N [Pifithrin_alpha] + CC1(C)CCC(c2ccc(Cl)cc2)=C(CN2CCN(c3ccc(C(=O)NS(=O)(=O)c4ccc(N[C@H](CCN5CCOCC5)CSc5ccccc5)c(S(=O)(=O)C(F)(F)F)c4)cc3)CC2)C1 [Navitoclax] (partner 0.5 µM)
Outline: as §1

[3] = compound: CNC(=O)c1ccccc1Sc1ccc2c(/C=C/c3ccccn3)n[nH]c2c1 [Axitinib] + COc1cccc2cc(-c3nc([C@H]4CC[C@H](C(=O)O)CC4)n4ncnc(N)c34)[nH]c12 [OSI-027] (partner 0.5 µM)
Outline: as §1

[4] = compound: Nc1nc(Nc2ccc3c(c2)CC[C@@H](N2CCCC2)CC3)nn1-c1cc2c(nn1)-c1ccccc1CCC2 [Bemcentinib] + CC(=O)Nc1cccc(-n2c(=O)n(C3CC3)c(=O)c3c(Nc4ccc(I)cc4F)n(C)c(=O)c(C)c32)c1 [Trametinib] (partner 0.02 µM)
Outline: as §1

Row | Cell Line | relative viability ([1]; first compound 0.04 µM) | relative viability ([1]; first compound 0.1265 µM) | relative viability ([1]; first compound 0.4 µM) | relative viability ([1]; first compound 1.265 µM) | relative viability ([1]; first compound 4 µM) | relative viability ([2]; first compound 1 µM) | relative viability ([2]; first compound 3.162 µM) | relative viability ([2]; first compound 10 µM) | relative viability ([2]; first compound 31.62 µM) | relative viability ([2]; first compound 100 µM) | relative viability ([3]; first compound 0.005 µM) | relative viability ([3]; first compound 0.01581 µM) | relative viability ([3]; first compound 0.05 µM) | relative viability ([3]; first compound 0.1581 µM) | relative viability ([3]; first compound 0.5 µM) | relative viability ([4]; first compound 0.04 µM) | relative viability ([4]; first compound 0.1265 µM) | relative viability ([4]; first compound 0.4 µM) | relative viability ([4]; first compound 1.265 µM) | relative viability ([4]; first compound 4 µM)
1 | NCI-H2023 | 0.689 | 0.721 | 0.821 | 0.877 | 0.678 | 0.914 | 0.968 | 0.8 | 0.676 | 0.822 | 0.437 | 0.446 | 0.396 | 0.337 | 0.468 | 0.564 | 0.675 | 0.572 | 0.762 | 0.657
2 | RERF-LC-KJ | 0.918 | 0.921 | 0.886 | 0.849 | 1 | 0.591 | 0.619 | 0.5 | 0.824 | 0.412 | 0.701 | 0.529 | 0.553 | 0.503 | 0.61 | 0.953 | 0.968 | 0.863 | 0.818 | 0.96
3 | NCI-H1734 | 0.856 | 0.913 | 0.952 | 1.01 | 0.836 | 0.892 | 0.95 | 0.796 | 0.745 | 0.734 | 0.586 | 0.57 | 0.656 | 0.623 | 0.644 | 0.679 | 0.743 | 0.739 | 0.625 | 0.701
4 | NCI-H2087 | 0.957 | 0.975 | 1.09 | 0.891 | 1.09 | 0.948 | 1.04 | 0.998 | 0.742 | 0.715 | 0.622 | 0.558 | 0.696 | 0.562 | 0.831 | 0.192 | 0.193 | 0.201 | 0.211 | 0.206
5 | EKVX | 1.06 | 1.19 | 1.15 | 1.26 | 1.15 | 0.936 | 0.886 | 0.738 | 0.645 | 0.595 | 0.708 | 0.708 | 0.746 | 0.737 | 0.69 | 0.32 | 0.372 | 0.351 | 0.491 | 0.34
6 | NCI-H1915 | 1.05 | 1.13 | 1.1 | 1.11 | 1.1 | 0.791 | 0.793 | 0.788 | – | 0.801 | 0.615 | 0.653 | 0.65 | 0.64 | 0.756 | 0.291 | 0.29 | 0.283 | 0.293 | 0.305
7 | NCI-H3122 | 0.949 | 1.06 | 1.02 | 1.08 | 1 | 1.03 | 1.02 | 1.03 | 0.845 | 1.05 | 0.959 | 0.946 | 1.01 | 0.709 | 1.02 | 0.25 | 0.248 | 0.214 | 0.252 | 0.244
8 | BEN | 0.915 | 1.09 | 0.986 | 0.886 | 0.907 | 0.0519 | 0.0641 | 0.0597 | 0.0612 | 0.0656 | 0.3 | 0.287 | 0.3 | 0.286 | 0.342 | 1.01 | 1.18 | 1.21 | 1.04 | 1.03

Reference: the supplement of paper PMC10307832
